In patent US20040147452A1, “Non-amphoteric glutathione derivative compositions for tropical application” (priority 2002, published 2004):
Read-outs that look alike come from different tables or passages of the source.

Tests used:
[1] = test system: X-linked ichthyosis with severe dry skin; details: 3% cream under test chambers on forearm, subject
Description: A solution containing a non-amphoteric glutathione derivative was prepared. N-Acetyl-glutathione diethyl ester 3 g was dissolved in warm propylene glycol 17 ml, and the solution was mixed with 80 g oil-in-water cream base or hydrophilic ointment. The cream contained 3% non-amphoteric N-acetyl-glutathione diethyl ester.
A subject who had X-linked ichthyosis with severe dry skin participated in this study. Test spots were I cm square sites on extensor surface of forearm, a grid pattern formed by Hayes Test Chambers on Hayes adhesive strips. Each test chamber contained a square piece of filter paper which was fully saturated with the non-amphoteric glutathione derivative cream. Test chambers were impressed on the skin to leave outlines which were marked with SANFORD® SHARPIE® permanent marker. Sites were re-marked at each successive application of the test cream. Chambers were removed twice weekly, and replaced with a new adhesive strip of chambers with filter paper saturated with the test cream. The test was carried out for two weeks.

[2] = test system: forearm skin; details: 5% solution with L-arginine; for increase in skin thickness: forearm
Description: The combined thickness of two whole-skin layers including thickness of the two hinge leaves was measured with micrometer calipers. The thickness of the two hinge leaves was subtracted to determine the actual thickness of two whole-skin layers. Triplicate measurements on treated sites were done and an average number was used for calculation of the skin thickness.
The solution thus prepared contained 5% non-amphoteric glutathione derivative. For comparative study, glutathione 5 g and L-arginine 1 g were dissolved in 94 ml solution prepared from water 70 parts and propylene glycol 30 parts. The solution thus prepared contained 5% amphoteric glutathione.
A subject, applied topically twice daily the above 5% amphoteric glutathione solution to their left forearm and 5% non-amphoteric glutathione derivative to their right forearm for four weeks.
A solution containing a non-amphoteric glutathione derivative was prepared. […] The solution thus prepared contained 5% non-amphoteric glutathione derivative.
A subject, applied topically twice daily the above 5% non-amphoteric glutathione derivative to their right forearm for eight weeks.
A subject, applied topically twice daily the above 5% non-amphoteric glutathione derivative to their left forearm for eight weeks.

[3] = test system: chronic nummular eczema; details: 10% cream of Preparation Example 2, topically twice daily for two days, subject, right lower leg
Description: A solution containing a non-amphoteric glutathione derivative was prepared. […] The solution was mixed uniformly with 70 g cream base.

[4] = topically twice daily for four weeks, subject

SMILES	clinical evaluation, improvement of rough and scaly skin ([1]; after one week)	appearance of severe dry skin ([1]; after two weeks)	increase in skin thickness [2, 4]	appearance of treated forearm skin [2, 4]	appearance of treated forearm skin ([2]; topically twice daily for eight weeks, one subject per example)	areas of the eczematous lesions reduced [3]
CCOC(=O)CNC(=O)[C@H](CS)NC(=O)CC[C@H](NC(C)=O)C(=O)OCC [N-acetyl-glutathione diethyl ester, N-Acetyl-glutathione diethyl ester]	90%	smooth and normal-looking				
N[C@@H](CCC(=O)N[C@@H](CS)C(=O)NCC(=O)O)C(=O)O [glutathione]			no change	still loose, relatively thin and wrinkled when lifted		
COC(=O)CNC(=O)[C@H](CS)NC(=O)CC[C@H](N)C(=O)OC.Cl [glutathione dimethyl ester, Glutathione dimethyl ester hydrochloride]			10%	more firm, smooth, plump and minimally wrinkled when lifted	more firm, smooth, plump and minimally wrinkled when lifted	75%
